In US7695930B2, “Method for the detection, identification and/or quantification of microoganisms with peptidase activity using phenoxazinone derivatives as enzyme substrates” (Biomerieux, priority 2003, dated 2010):
Read-outs that look alike come from different tables or passages of the source.

Columns and labels:
[1] = tested on: Acinetobacter baumanii; test: Alanyl-peptidase detection on agar medium (Example 13); assay type: cell-based; conditions: 50 mg/l
Description: (§1) The detection media were prepared by mixing 3.6 g of biogelytone (bioMérieux), 2.16 g of meat extract (bioMérieux), 1.26 g of malt extract (bioMérieux), 5.76 g of NaCl (Merck) and 10.8 g of agar (bioMérieux).
(§2) 720 ml of osmosed water were added to the powder, and the mixture was then melted in a waterbath at […]. The product was separated into two flasks, each of 360 ml. Autoclaving was carried out at 121° C. for 15 min and the product was cooled to […]. in a waterbath.
(§3) L-Alanyl-7-amino-4-methylcoumarin (Ala-AMC, Bachem) was then added to the first flask as a control, at the final concentration of 50 mg/l, and L-alanyl-9-aminobenzo[a]phenoxazin-5-one (Ala-ABP, substrate of the invention obtained in Example 2, in which the amino acid is L-alanine), was then added to the second flask at the final concentration of 25 mg/l.
(§4) The size of the colonies, their coloration and also the intensity of this coloration were noted.

[2] = tested on: Bacillus subtilis; test: as above; assay type: cell-based; conditions: 50 mg/l
Description: as §1, §2, §3, §4

[3] = tested on: Candida albicans; test: as above; assay type: cell-based; conditions: 50 mg/l
Description: as §1, §2, §3, §4

[4] = tested on: Candida glabrata; test: as above; assay type: cell-based; conditions: 50 mg/l
Description: as §1, §2, §3, §4

[5] = tested on: Candida krusei; test: as above; assay type: cell-based; conditions: 50 mg/l
Description: as §1, §2, §3, §4

[6] = tested on: Corynebacterium Pseudodiphteriticum; test: as above; assay type: cell-based; conditions: 50 mg/l
Description: as §1, §2, §3, §4

[7] = tested on: Edwardsiella tarda; test: as above; assay type: cell-based; conditions: 50 mg/l
Description: as §1, §2, §3, §4

[8] = tested on: Enterobacter cloacae; test: as above; assay type: cell-based; conditions: 50 mg/l
Description: as §1, §2, §3, §4

[9] = tested on: Enterococcus faecalis; test: as above; assay type: cell-based; conditions: 50 mg/l
Description: as §1, §2, §3, §4

[10] = tested on: Enterococcus faecium; test: as above; assay type: cell-based; conditions: 50 mg/l
Description: as §1, §2, §3, §4

[11] = tested on: Escherichia coli; test: as above; assay type: cell-based; conditions: 50 mg/l
Description: as §1, §2, §3, §4

[12] = tested on: Hafnia alvei; test: as above; assay type: cell-based; conditions: 50 mg/l
Description: as §1, §2, §3, §4

[13] = tested on: Klebsiella pneumoniae; test: as above; assay type: cell-based; conditions: 50 mg/l
Description: as §1, §2, §3, §4

[14] = tested on: Listeria innocua; test: as above; assay type: cell-based; conditions: 50 mg/l
Description: as §1, §2, §3, §4

[15] = tested on: Proteus mirabilis; test: as above; assay type: cell-based; conditions: 50 mg/l
Description: as §1, §2, §3, §4

[16] = tested on: Pseudomonas aeruginosa; test: as above; assay type: cell-based; conditions: 50 mg/l
Description: as §1, §2, §3, §4

[17] = tested on: Saccharomyces cerevisiae; test: as above; assay type: cell-based; conditions: 50 mg/l
Description: as §1, §2, §3, §4

[18] = tested on: Salmonella typhimurium; test: as above; assay type: cell-based; conditions: 50 mg/l
Description: as §1, §2, §3, §4

[19] = tested on: Serratia liquefaciens; test: as above; assay type: cell-based; conditions: 50 mg/l
Description: as §1, §2, §3, §4

[20] = tested on: Serratia marcescens; test: as above; assay type: cell-based; conditions: 50 mg/l
Description: as §1, §2, §3, §4

[21] = tested on: Staphylococcus aureus; test: as above; assay type: cell-based; conditions: 50 mg/l
Description: as §1, §2, §3, §4

[22] = tested on: Staphylococcus epidermidis; test: as above; assay type: cell-based; conditions: 50 mg/l
Description: as §1, §2, §3, §4

[23] = tested on: Staphylococcus saprophyticus; test: as above; assay type: cell-based; conditions: 50 mg/l
Description: as §1, §2, §3, §4

[24] = tested on: Streptococcus agalactiae; test: as above; assay type: cell-based; conditions: 50 mg/l
Description: as §1, §2, §3, §4

[25] = tested on: Streptococcus pyogenes; test: as above; assay type: cell-based; conditions: 50 mg/l
Description: as §1, §2, §3, §4

[26] = tested on: Burkholderia cepacia 1; conditions: 60 mg/l
Description: (§5) 300 ml of Columbia medium were melted in a waterbath at 100° C. and autoclaved at 121° C. for 15 min. The product was then cooled to 50° C. in a waterbath.
(§6) This medium was separated into 3 flasks of 100 ml, and then, added at 50° C., as substrates, were those of Examples 4 and 6 for which the amino acid is β-alanine (respectively, β-alanine-9-amino-6-carbethoxybenzo[a]phenoxazin-5-one or β-Ala-ACAP and β-alanine-9-amino-6-chlorobenzo[a]phenoxazin-5-one or β-Ala-ACHP), solubilized in DMSO, according to the concentrations indicated in Table 5 below:
(§7) The medium was then poured into Petri dishes.
(§8) Nine microorganism strains derived from the Applicant's collection, suspended in physiological saline, were seeded onto the media prepared in point 14.1 above according to a multipoint inoculation in a proportion of 100 000 cfu/spot. The dishes were incubated at 37° C. for 48 hours. The colonies formed (one colony per strain) were examined visually after incubation for 24 and 48 hours.
(§9) The results are expressed in Table 6 hereinafter according to the rules and the nomenclature stated in paragraph 11.3 and where RP signifies pale pink.

[27] = tested on: Burkholderia cepacia 2; conditions: 60 mg/l
Description: as §5, §6, §7, §8, §9

[28] = tested on: Candida albicans (NCTC); conditions: 60 mg/l
Description: as §5, §6, §7, §8, §9

[29] = tested on: Enterobacter cloacae (NCTC 11936); conditions: 60 mg/l
Description: as §5, §6, §7, §8, §9

[30] = tested on: Enteroccus faecalis (NCTC 775); conditions: 60 mg/l
Description: as §5, §6, §7, §8, §9

[31] = tested on: Escherichia coli (NCTC 10418); conditions: 60 mg/l
Description: as §5, §6, §7, §8, §9

[32] = tested on: Pseudomonas aeruginosa 1; conditions: 60 mg/l
Description: as §5, §6, §7, §8, §9

[33] = tested on: Pseudomonas aeruginosa 2; conditions: 60 mg/l
Description: as §5, §6, §7, §8, §9

[34] = tested on: Pseudomonas aeruginosa 3; conditions: 60 mg/l
Description: as §5, §6, §7, §8, §9

## Cc1cc(=O)oc2cc(NC(=O)[C@H](C)N)ccc12 [Ala-AMC, L-Alanyl-7-amino-4-methylcoumarin, reference compound]
[1]; 24 h
  growth diameter: 1.5 mm
  intensity of coloration, scale 0 to 4: 3
[1]; 48 h
  growth diameter: 1.5 mm
  intensity of coloration, scale 0 to 4: 3
[2]; 24 h
  growth diameter: 1.7 mm
[2]; 48 h
  growth diameter: 1.8 mm
[3]; 24 h
  growth diameter: 0.3 mm
[3]; 48 h
  growth diameter: 0.5 mm
  intensity of coloration, scale 0 to 4: 2
[4]; 24 h
  growth diameter: 0.2 mm
[4]; 48 h
  growth diameter: 0.3 mm
[5]; 24 h
  growth diameter: 0.7 mm
[5]; 48 h
  growth diameter: 1.5 mm
  intensity of coloration, scale 0 to 4: 0.25
[6]; 24 h
  growth diameter: 0 mm
[6]; 48 h
  growth diameter: 0.4 mm
  intensity of coloration, scale 0 to 4: 2
[7]; 24 h
  growth diameter: 0.4 mm
  intensity of coloration, scale 0 to 4: 3
[7]; 48 h
  growth diameter: 0.5 mm
  intensity of coloration, scale 0 to 4: 3
[8]; 24 h
  growth diameter: 0.5 mm
  intensity of coloration, scale 0 to 4: 3
[8]; 48 h
  growth diameter: 0.8 mm
  intensity of coloration, scale 0 to 4: 3
[9]; 24 h
  growth diameter: 0.3 mm
[9]; 48 h
  growth diameter: 0.4 mm
[10]; 24 h
  growth diameter: 0.2 mm
[10]; 48 h
  growth diameter: 0.3 mm
  intensity of coloration, scale 0 to 4: 0.25
[11]; 24 h
  growth diameter: 1.7 mm
  intensity of coloration, scale 0 to 4: 3
[11]; 48 h
  growth diameter: 1.7 mm
  intensity of coloration, scale 0 to 4: 3
[12]; 24 h
  growth diameter: 0.7 mm
  intensity of coloration, scale 0 to 4: 3
[12]; 48 h
  growth diameter: 0.7 mm
  intensity of coloration, scale 0 to 4: 3
[13]; 24 h
  growth diameter: 1.2 mm
  intensity of coloration, scale 0 to 4: 3
[13]; 48 h
  growth diameter: 1.8 mm
  intensity of coloration, scale 0 to 4: 3
[14]; 24 h
  growth diameter: 0.2 mm
[14]; 48 h
  growth diameter: 0.3 mm
[15]; 24 h
  growth diameter: 0.7 mm
  intensity of coloration, scale 0 to 4: 3
[15]; 48 h
  growth diameter: 0.7 mm
  intensity of coloration, scale 0 to 4: 3
[16]; 24 h
  growth diameter: 0.3 mm
[16]; 48 h
  growth diameter: 0.5 mm
  intensity of coloration, scale 0 to 4: 2
[17]; 24 h
  growth diameter: 0.1 mm
[17]; 48 h
  growth diameter: 0.2 mm
[18]; 24 h
  growth diameter: 1.3 mm
  intensity of coloration, scale 0 to 4: 3
[18]; 48 h
  growth diameter: 1.5 mm
  intensity of coloration, scale 0 to 4: 3
[19]; 24 h
  growth diameter: 0.7 mm
  intensity of coloration, scale 0 to 4: 3
[19]; 48 h
  growth diameter: 1.3 mm
  intensity of coloration, scale 0 to 4: 3
[20]; 24 h
  growth diameter: 0.5 mm
  intensity of coloration, scale 0 to 4: 3
[20]; 48 h
  growth diameter: 0.7 mm
  intensity of coloration, scale 0 to 4: 3
[21]; 24 h
  growth diameter: 0.5 mm
[21]; 48 h
  growth diameter: 0.7 mm
[22]; 24 h
  growth diameter: 0.3 mm
[22]; 48 h
  growth diameter: 0.4 mm
[23]; 24 h
  growth diameter: 0.3 mm
[23]; 48 h
  growth diameter: 0.4 mm
[24]; 24 h
  growth diameter: 0.1 mm
[24]; 48 h
  growth diameter: 0.2 mm
[25]; 24 h
  growth diameter: 0.1 mm
[25]; 48 h
  growth diameter: 0.2 mm
  intensity of coloration, scale 0 to 4: 3

## β-alanine-9-amino-6-carbethoxybenzo[a]phenoxazin-5-one [β-Ala-ACAP]
[26]; 24 h
  growth diameter: 2 mm
[26]; 48 h
  growth diameter: 2 mm
[27]; 24 h
  growth diameter: 2 mm
[27]; 48 h
  growth diameter: 2 mm
[28]; 24 h
  growth diameter: 2 mm
[28]; 48 h
  growth diameter: 2 mm
[29]; 24 h
  growth diameter: 3 mm
[29]; 48 h
  growth diameter: 3 mm
[30]; 24 h
  growth diameter: 2 mm
[30]; 48 h
  growth diameter: 2 mm
[31]; 24 h
  growth diameter: 2 mm
[31]; 48 h
  growth diameter: 3 mm
[32]; 24 h
  color of the colony: R
  growth diameter: 3 mm
  intensity of coloration, scale 0 to 4: 1
[32]; 48 h
  color of the colony: R
  growth diameter: 3 mm
  intensity of coloration, scale 0 to 4: 3
[33]; 24 h
  color of the colony: R
  growth diameter: 3 mm
  intensity of coloration, scale 0 to 4: 2
[33]; 48 h
  color of the colony: R
  growth diameter: 3 mm
  intensity of coloration, scale 0 to 4: 2
[34]; 24 h
  color of the colony: R
  growth diameter: 1 mm
  intensity of coloration, scale 0 to 4: 2
[34]; 48 h
  color of the colony: R
  growth diameter: 2 mm
  intensity of coloration, scale 0 to 4: 3

## β-alanine-9-amino-6-chlorobenzo[a]phenoxazin-5-one [β-Ala-ACHP]
[26]; 24 h
  growth diameter: 2 mm
[26]; 48 h
  growth diameter: 2 mm
[27]; 24 h
  growth diameter: 2 mm
[27]; 48 h
  growth diameter: 2 mm
[28]; 24 h
  growth diameter: 2 mm
[28]; 48 h
  growth diameter: 2 mm
[29]; 24 h
  growth diameter: 2 mm
[29]; 48 h
  growth diameter: 3 mm
[30]; 24 h
  growth diameter: 1 mm
[30]; 48 h
  growth diameter: 1 mm
[31]; 24 h
  growth diameter: 2 mm
[31]; 48 h
  growth diameter: 3 mm
[32]; 24 h
  color of the colony: R
  growth diameter: 3 mm
  intensity of coloration, scale 0 to 4: 2
[32]; 48 h
  growth diameter: 3 mm
  intensity of coloration, scale 0 to 4: 2
[33]; 24 h
  color of the colony: R
  growth diameter: 2 mm
  intensity of coloration, scale 0 to 4: 2
[33]; 48 h
  growth diameter: 3 mm
  intensity of coloration, scale 0 to 4: 2
[34]; 24 h
  color of the colony: R
  growth diameter: 1 mm
  intensity of coloration, scale 0 to 4: 2
[34]; 48 h
  growth diameter: 2 mm
  intensity of coloration, scale 0 to 4: 2
